MIC, inhibition and EC50 data for 17 compounds are collected here from ChEMBL document CHEMBL6109065, “Synthesis, antibacterial and anticancer activity of azo-based and aminomethylene derivatives of cyclic β-keto sulfones” (Bioorg Med Chem Lett, 2025).

≈ marks a conversion by molar mass, not a printed value.

In series [1] the test system is Staphylococcus aureus. Kind of series: Antibacterial activity against Staphylococcus aureus assessed as reduction in bacterial growth. It counts as functional.
Series [2] has as its system Pseudomonas aeruginosa. Kind of series: Antibacterial activity against Pseudomonas aeruginosa assessed as reduction in bacterial growth. It counts as functional.
For series [3], the system named is MDA-MB-231. Kind of series: Cytotoxicity against human MDA-MB-231 cells assessed as inhibition of cell growth at 0.5 mM relative to control. It counts as functional.
In series [4] the test system is Escherichia coli. Kind of series: Antibacterial activity against Escherichia coli assessed as reduction in bacterial growth. The format is functional.
Series [5] can be described thus: Cytotoxicity against MAEC cells assessed as inhibition of cell growth at 0.5 mM relative to control. The format is toxicity, cell-based. The settings on record: mouse.
Series [6] in a line: Cytotoxicity against MAEC cells assessed as cell viability. The format is toxicity, cell-based. The settings on record: mouse.
The test system of series [7] is MDA-MB-231. Kind of series: Cytotoxicity against human MDA-MB-231 cells assessed as inhibition of cell viability. The format is functional, cell-based.

Turning to `NS(=O)(=O)c1ccc(N/N=C2\C(=O)C3(CCCC3)CS2(=O)=O)cc1`, the MIC in series [1] was determined as 94 µM (≈ 34.9 µg/mL); in series [2], 750 µM (≈ 279 µg/mL); in series [4], 188 µM (≈ 69.8 µg/mL). Besides, the results for the inhibition at 500 µM in series [3] and in series [5] were 81% and 1%, respectively.
Regarding `CCC1(C)CCS(=O)(=O)/C(=N/Nc2ccc(S(N)(=O)=O)cc2)C1=O` (stereo not given), the MIC in series [1] stood at 375 µM (≈ 140 µg/mL); in series [2] it was 750 µM (≈ 280 µg/mL); in series [4], 750 µM (≈ 280 µg/mL). The inhibition at 500 µM in series [3] worked out at 57%; in series [5], 100%. The EC50 in series [6] is 78 µM.
With `NS(=O)(=O)c1ccc(N/N=C2\C(=O)C3(CC3)CS2(=O)=O)cc1`, the MIC was 188 µM (≈ 64.6 µg/mL) in series [1], greater than 750 µM in series [2] and 94 µM (≈ 32.3 µg/mL) in series [4]. Further, the inhibition at 500 µM in series [3] came out at 4%; in series [5] it was 1%.
On the same counts, the results for `CC(C)(C)OC(=O)N1CC2(C1)CS(=O)(=O)/C(=N/Nc1cccc(S(N)(=O)=O)c1)C2=O` are 188 µM (≈ 86.2 µg/mL), greater than 750 µM, 188 µM (≈ 86.2 µg/mL), 63% and 6%.
On to `CC(C)(C)OC(=O)N1CC2(C1)CS(=O)(=O)/C(=N/Nc1ccc(S(N)(=O)=O)cc1)C2=O`, for which the MIC in series [1] turned out to be 23 µM (≈ 10.5 µg/mL); in series [2], 750 µM (≈ 344 µg/mL); in series [4] it was 188 µM (≈ 86.2 µg/mL). Also, the inhibition at 500 µM in series [3] is 21%; in series [5] it was 20%.
In the case of `CC1(C)CS(=O)(=O)/C(=N/Nc2cccc(S(N)(=O)=O)c2)C1=O`, the figures for the MIC in series [1], in series [2] and in series [4] were 23 µM (≈ 7.94 µg/mL), greater than 750 µM and 188 µM (≈ 64.9 µg/mL), respectively. In addition, the inhibition at 500 µM in series [3] came out at 78%; in series [5], 1%.
On the same counts, the results for `CC(C)(C)OC(=O)N1CCC2(CC1)CS(=O)(=O)/C(=N/Nc1cccc(S(N)(=O)=O)c1)C2=O` are 375 µM (≈ 182 µg/mL), greater than 750 µM, 188 µM (≈ 91.5 µg/mL), 37% and 7%.
As for `Cc1ccc(N/N=C2\C(=O)C3(CCCC3)CS2(=O)=O)cc1`, the values for the minimal inhibitory concentration (MIC) in series [1], in series [2] and in series [4] were greater than 750 µM, 750 µM (≈ 230 µg/mL) and greater than 750 µM, respectively. The inhibition at 500 µM in series [3] is 66%; in series [5], 26%.
With `NS(=O)(=O)c1cccc(N/N=C2\C(=O)C3(CCCC3)CS2(=O)=O)c1`, the results for the MIC in series [1], in series [2] and in series [4] were 188 µM (≈ 69.8 µg/mL), greater than 750 µM and 188 µM (≈ 69.8 µg/mL), respectively. In addition, the figures for the inhibition at 500 µM in series [3] and in series [5] were 21% and 10%, respectively.
For the compound `CC1(C)CS(=O)(=O)/C(=C/NCc2ccccc2)C1=O`, the results for the minimal inhibitory concentration (MIC) in series [1], in series [2] and in series [4] were 94 µM (≈ 26.3 µg/mL), 750 µM (≈ 210 µg/mL) and 750 µM (≈ 210 µg/mL), respectively. Also, the inhibition at 500 µM in series [3] is 88%; in series [5], 10%. The EC50 in series [7] was determined as 283 µM.
Consider `CC(C)(C)OC(=O)N1CCC2(CC1)CS(=O)(=O)/C(=N/Nc1ccc(S(N)(=O)=O)cc1)C2=O`, for which the MIC in series [1] is 375 µM (≈ 182 µg/mL); in series [2], greater than 750 µM; in series [4], 750 µM (≈ 365 µg/mL). Further, the inhibition at 500 µM in series [3] is 93%; in series [5], 11%. Moreover, the EC50 in series [7] is 249 µM.
On to `O=C1/C(=C\Nc2ccccc2)S(=O)(=O)CC12CC2`, for which the MIC was greater than 750 µM in series [1], 375 µM (≈ 98.7 µg/mL) in series [2] and greater than 750 µM in series [4]. Moreover, the inhibition at 500 µM in series [3] was found to be 19%; in series [5], 6%.
On to `O=C1/C(=C\NCc2ccccc2)S(=O)(=O)CC12CC2`, for which the minimal inhibitory concentration (MIC) in series [1], in series [2] and in series [4] was 750 µM (≈ 208 µg/mL) throughout. In addition, the inhibition at 500 µM in series [3] was 90%; in series [5] it was 17%. Also, the EC50 in series [7] is 270 µM.
Consider `CC1(C)CS(=O)(=O)/C(=N/Nc2ccc(S(N)(=O)=O)cc2)C1=O`, for which the MIC in series [1] amounted to 188 µM (≈ 64.9 µg/mL); in series [2], 375 µM (≈ 130 µg/mL); in series [4], 188 µM (≈ 64.9 µg/mL). For the same compound, the inhibition at 500 µM in series [3] was determined as 51%; in series [5], 3%.
Consider `CC1(C)CS(=O)(=O)/C(=C/Nc2ccccc2)C1=O`, for which the minimal inhibitory concentration (MIC) in series [1] turned out to be 94 µM (≈ 24.9 µg/mL); in series [2], 375 µM (≈ 99.5 µg/mL); in series [4] it was 188 µM (≈ 49.9 µg/mL). In addition, the inhibition at 500 µM in series [3] and in series [5] was 7% each time.
As to `Nc1cccc(S(N)(=O)=O)c1`, the minimal inhibitory concentration (MIC) in series [1] came out at 375 µM (≈ 64.6 µg/mL); in series [2], 750 µM (≈ 129 µg/mL); in series [4], 750 µM (≈ 129 µg/mL). The inhibition at 500 µM in series [3] came to 30%; in series [5] it was 100%. For the same compound, the EC50 in series [6] is 93 µM.
Regarding `Nc1ccc(S(N)(=O)=O)cc1` [SULFANILAMIDE], the MIC in series [1] was 750 µM (≈ 129 µg/mL); in series [2] it was 750 µM (≈ 129 µg/mL); in series [4], 375 µM (≈ 64.6 µg/mL). The values for the inhibition at 500 µM in series [3] and in series [5] were 57% and 6%, respectively.
